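All cell lines were grown in 96-well plates and treated with compound for 48 hours. Abbreviation: GI50, concentration required for 50% inhibition of growth.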 Active and inactive are the calls of the source. No stated cut-off is given here; in the data, active = GI50 up to about 1.1 µM and inactive = higher. Where only a bound is given, the exact number is not on record here.

This is an account of results in ChEMBL document CHEMBL1201862, “PubChem BioAssay data set” (2004).

Among the test systems are A549; BT-549; CCRF-CEM; COLO 205; HCT-116; HCT-15; HOP-62; HOP-92; IGROV-1; LOX IMVI; Malme-3M; NCI-H460; OVCAR-3; OVCAR-4; SK-MEL-28; SK-MEL-5; SNB-75; TK-10; UO-31.
Test in all cases: DTP human tumour cell line panel, 48 h

The GI50 is the concentration giving 50% growth inhibition. `CSc1nc(Cl)c2c(n1)Sc1nc3ccccc3n1N=C2`: the GI50 in the assay with A549 was 45.2 µM (inactive); in the assay on BT-549 it was 18.6 µM (inactive); in the assay with CCRF-CEM, 14.9 µM (inactive); with COLO 205, 23 µM (inactive); in the assay on HCT-116 it was 25.1 µM (inactive); with HCT-15, 17.6 µM. In addition, the GI50 in the assay with HOP-62 was 41.7 µM (inactive); with HOP-92, 18.3 µM (inactive); in the assay on IGROV-1, 17 µM (inactive); with LOX IMVI, 18.2 µM (inactive); in the assay on Malme-3M, 25.8 µM (inactive); with NCI-H460, 56 µM (inactive). Moreover, the GI50 is 25.5 µM (inactive) in the assay on OVCAR-3; 29.4 µM (inactive) with OVCAR-4; 40.8 µM (inactive) with SK-MEL-28; 21.3 µM (inactive) in the assay with SK-MEL-5; 25.9 µM (inactive) in the assay with SNB-75; 33.7 µM (inactive) in the assay with TK-10. Also, in the assay on UO-31, the GI50 is 18.5 µM (inactive).

In the case of `CCOC(=O)c1[nH]c(Br)c(-c2ccc(OC)c(OC)c2)c1Br`, the GI50 in the assay with A549 is 0.287 µM (active); in the assay with BT-549, 0.054 µM (active); in the assay on CCRF-CEM, 0.0173 µM (active); in the assay on COLO 205 it was 0.175 µM (active); with HCT-116, 0.0183 µM (active); in the assay on HCT-15 it was 0.0527 µM. Further, the GI50 was 0.0608 µM (active) in the assay on HOP-62; 7.46 µM (inactive) in the assay on HOP-92; 0.0552 µM (active) in the assay with IGROV-1; 0.0179 µM (active) in the assay with LOX IMVI; 1.71 µM (inactive) with Malme-3M; 0.766 µM (active) with NCI-H460. The GI50 in the assay on OVCAR-3 is 0.0163 µM (active); in the assay on OVCAR-4, 4.82 µM (inactive); in the assay on SK-MEL-28 it was 0.0562 µM (active); in the assay on SK-MEL-5, 0.0412 µM (active); with SNB-75, 0.0259 µM (active); in the assay on TK-10, 14 µM (inactive). Besides, in the assay on UO-31, the GI50 was 0.0676 µM (active).

Regarding `Cn1c(=O)nc2n(CCO)ccnc-2c1=O`, the GI50 in the assay with A549 was > 100 µM (inactive); in the assay with BT-549, > 100 µM (inactive); in the assay on CCRF-CEM, > 100 µM (inactive); in the assay on COLO 205, > 100 µM (inactive); in the assay on HCT-116, > 100 µM (inactive); in the assay on HCT-15, > 100 µM. The GI50 with HOP-62, in the assay with HOP-92, with IGROV-1, in the assay with LOX IMVI, in the assay on Malme-3M and in the assay with NCI-H460 was > 100 µM (inactive) in each case. Moreover, the GI50 in the assay with OVCAR-3, with OVCAR-4, in the assay on SK-MEL-28, in the assay on SK-MEL-5, with SNB-75 and in the assay with TK-10 was > 100 µM (inactive) throughout. In addition, in the assay on UO-31, the GI50 is > 100 µM (inactive).

With `C/C(Nc1ccc(Cl)cc1Cl)=C1/CCOC1=O`, the GI50 was 78.7 µM (inactive) in the assay with A549; 24.1 µM (inactive) with BT-549; 25.3 µM (inactive) with CCRF-CEM; > 100 µM (inactive) in the assay with COLO 205; > 100 µM (inactive) in the assay on HCT-116; > 100 µM in the assay on HCT-15. Also, the GI50 with HOP-62 is 27 µM (inactive); in the assay with HOP-92 it was 22.8 µM (inactive); with IGROV-1 it was > 100 µM (inactive); in the assay on LOX IMVI, > 100 µM (inactive); in the assay on Malme-3M, > 100 µM (inactive); in the assay on NCI-H460, 89.5 µM (inactive). The GI50 in the assay on OVCAR-3 was > 100 µM (inactive); in the assay on OVCAR-4, > 100 µM (inactive); in the assay with SK-MEL-28, > 100 µM (inactive); with SK-MEL-5 it was > 100 µM (inactive); in the assay with SNB-75, 36.9 µM (inactive); with TK-10, 56.4 µM (inactive). Further, the GI50 with UO-31 is 40.8 µM (inactive).

For the molecule `O=c1[nH]nc(-c2ccccc2)n1/N=C/c1ccncc1`, the GI50 with A549 was > 100 µM (inactive); with BT-549, 32.6 µM (inactive); with CCRF-CEM, > 100 µM (inactive); in the assay with COLO 205, 54 µM (inactive); in the assay on HCT-116, 53.6 µM (inactive); in the assay with HCT-15, > 100 µM. Further, the GI50 with HOP-62, in the assay with HOP-92, in the assay on IGROV-1, in the assay on LOX IMVI, in the assay on Malme-3M and with NCI-H460 was > 100 µM (inactive) throughout. Further, the GI50 with OVCAR-3 was > 100 µM (inactive); in the assay with OVCAR-4, > 100 µM (inactive); with SK-MEL-28 it was > 100 µM (inactive); with SK-MEL-5, 44.7 µM (inactive); with SNB-75, 81.3 µM (inactive); with TK-10 it was > 100 µM (inactive). In addition, the GI50 with UO-31 was 46.3 µM (inactive).

On to `c1ccc2cc(CN3CCC(C4CCN(Cc5ccc6ccccc6c5)CC4)CC3)ccc2c1`, for which the GI50 with A549 is 4.2 µM (inactive); in the assay with BT-549 it was 10.3 µM (inactive); with CCRF-CEM it was 4.06 µM (inactive); with COLO 205 it was 1.76 µM (inactive); in the assay with HCT-116 it was 6.79 µM (inactive); with HCT-15, 3.18 µM. Besides, the GI50 was 2.49 µM (inactive) in the assay with HOP-62; 4.1 µM (inactive) with HOP-92; 6.4 µM (inactive) in the assay with IGROV-1; 2.22 µM (inactive) in the assay with LOX IMVI; 1.19 µM (inactive) in the assay with Malme-3M; 3.11 µM (inactive) in the assay on NCI-H460. Further, the GI50 was 4.59 µM (inactive) in the assay with OVCAR-3; 6.21 µM (inactive) with OVCAR-4; 1.87 µM (inactive) in the assay on SK-MEL-28; 2.06 µM (inactive) in the assay with SK-MEL-5; 2.67 µM (inactive) in the assay on SNB-75; 3.82 µM (inactive) with TK-10. In addition, the GI50 in the assay with UO-31 is 1.34 µM (inactive).

With `O=C1C=CC2(C=C1)CCC(=O)O2`, the GI50 was 20.6 µM (inactive) in the assay with A549; 18.5 µM (inactive) in the assay with BT-549; 5.82 µM (inactive) in the assay with CCRF-CEM; 11 µM (inactive) in the assay on COLO 205; 14.8 µM (inactive) in the assay with HCT-116; 7.52 µM with HCT-15. Besides, the GI50 in the assay on HOP-62 is 20.2 µM (inactive); with HOP-92, 11.1 µM (inactive); with IGROV-1, 10.8 µM (inactive); in the assay with LOX IMVI, 4.83 µM (inactive); in the assay with Malme-3M it was 5.58 µM (inactive); in the assay with NCI-H460, 14.3 µM (inactive). The GI50 with OVCAR-3 is 13.2 µM (inactive); in the assay with OVCAR-4, 14.8 µM (inactive); in the assay on SK-MEL-28 it was 16 µM (inactive); with SK-MEL-5, 16.3 µM (inactive); in the assay on SNB-75, 19 µM (inactive); in the assay on TK-10 it was 11.9 µM (inactive). Also, the GI50 in the assay on UO-31 was 15.1 µM (inactive).

As to `CCOC(=O)C1=C(C(=O)OCC)SC2(S1)C(C(=O)OCC)=C(C(=O)OCC)Sc1c2ssc1=O`, the GI50 is 2.26 µM (inactive) in the assay with A549; 1.94 µM (inactive) with BT-549; 0.16 µM (active) in the assay on CCRF-CEM; 1.84 µM (inactive) in the assay on COLO 205; 0.815 µM (active) in the assay with HCT-116; 0.912 µM in the assay on HCT-15. Further, the GI50 in the assay on HOP-62 is 1.67 µM (inactive); in the assay with HOP-92, 1.35 µM (inactive); in the assay with IGROV-1, 0.764 µM (active); in the assay on LOX IMVI, 0.239 µM (active); in the assay on Malme-3M, 1.98 µM (inactive); in the assay with NCI-H460, 8.51 µM (inactive). Further, the GI50 with OVCAR-3 is 1.69 µM (inactive); in the assay with OVCAR-4 it was 1.27 µM (inactive); in the assay with SK-MEL-28, 1.84 µM (inactive); with SK-MEL-5, 2.03 µM (inactive); in the assay with SNB-75, 1.85 µM (inactive); in the assay on TK-10, 1.73 µM (inactive). In addition, the GI50 in the assay with UO-31 is 1.54 µM (inactive).

With `CC(=O)NCCC1CN(C(=O)/C=C/I)c2ccccc21` (centres undefined), the GI50 in the assay on A549 was 17.2 µM (inactive); in the assay with BT-549, 5.42 µM (inactive); with CCRF-CEM, 2.95 µM (inactive); with COLO 205, 3.75 µM (inactive); in the assay with HCT-116, 4.01 µM (inactive); with HCT-15, 4.93 µM. In addition, the GI50 is 14.2 µM (inactive) in the assay with HOP-62; 1.9 µM (inactive) with HOP-92; 6.55 µM (inactive) in the assay with IGROV-1; 1.56 µM (inactive) with LOX IMVI; 13 µM (inactive) with Malme-3M; 4.62 µM (inactive) in the assay with NCI-H460. The GI50 in the assay on OVCAR-3 was 5.86 µM (inactive); with OVCAR-4 it was 1.96 µM (inactive); in the assay on SK-MEL-28, 6.04 µM (inactive); in the assay with SK-MEL-5, 7.57 µM (inactive); with SNB-75, 16.8 µM (inactive); with TK-10, 1.42 µM (inactive). For the same molecule, in the assay on UO-31, the GI50 is 2.89 µM (inactive).

As for `CSc1n[nH]c2[nH]nc(C)c12`, the GI50 in the assay with A549 was > 100 µM (inactive); with BT-549, > 100 µM (inactive); in the assay on CCRF-CEM, > 100 µM (inactive); in the assay on COLO 205, > 100 µM (inactive); with HCT-116, > 100 µM (inactive); in the assay on HCT-15, > 100 µM. Moreover, the GI50 in the assay on HOP-62, in the assay on HOP-92, in the assay on IGROV-1, in the assay on LOX IMVI, with Malme-3M and with NCI-H460 was > 100 µM (inactive) throughout. The GI50 with OVCAR-3, in the assay with OVCAR-4, in the assay on SK-MEL-28, in the assay with SK-MEL-5, with SNB-75 and in the assay on TK-10 was > 100 µM (inactive) throughout. In addition, the GI50 in the assay with UO-31 is > 100 µM (inactive).

With `COc1ccc(Cl)cc1NC(=O)O/N=C(\Cl)C(C)C`, the GI50 is 18.8 µM (inactive) in the assay with A549; 2.56 µM (inactive) in the assay with BT-549; 1.04 µM (active) in the assay on CCRF-CEM; 2.19 µM (inactive) in the assay on COLO 205; 7.19 µM (inactive) in the assay with HCT-116; 2.64 µM in the assay with HCT-15. In addition, the GI50 in the assay with HOP-62 was 18.4 µM (inactive); in the assay with HOP-92 it was 1.97 µM (inactive); in the assay with IGROV-1, 12.2 µM (inactive); in the assay with LOX IMVI, 2.08 µM (inactive); in the assay with Malme-3M, 1.94 µM (inactive); with NCI-H460 it was 17.1 µM (inactive). The GI50 in the assay on OVCAR-3 was 6 µM (inactive); in the assay on OVCAR-4, 17.2 µM (inactive); in the assay with SK-MEL-28, 18.4 µM (inactive); with SK-MEL-5, 5.22 µM (inactive); in the assay on SNB-75 it was 16.4 µM (inactive); in the assay on TK-10, 2.55 µM (inactive). For the same molecule, in the assay on UO-31, the GI50 is 13.8 µM (inactive).
